The text below walks through data of PubChem BioAssay (NCI).

Test systems include OVCAR-8 ovarian; EKVX NSCLC; OVCAR-4 ovarian; MDA-MB-435; M14 melanoma; HCT-15 colon; HL-60(TB) leukemia; TK-10 renal; SK-MEL-2 melanoma; U251 CNS.
What all share (experiment): NCI tumour cell line growth inhibition, 48 h

“And” between values parts separate entries of the source, which are not always exact repeats. Equal entries are not always repeated.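 All cell lines were grown in 96-well plates and treated with compound for 48 hours. GI50 marks 50% less growth. TGI marks complete inhibition of growth.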 A value given as a limit tells only on which side of the number the result lay.

Turning to `O=C1C=C[C@H](O)[C@@]2(CO)O[C@@H]12`, the GI50 in the test on OVCAR-8 ovarian was 13.2 µM; in the test on EKVX NSCLC it was 9690 nM; in the test with OVCAR-4 ovarian, 13000 nM; in the test on MDA-MB-435, 9920 nM; in the test with M14 melanoma, 15200 nM; in the test with HCT-15 colon, 14300 nM. The GI50 with HL-60(TB) leukemia is 2650 nM; with TK-10 renal, 16.1 µM; with SK-MEL-2 melanoma, 14600 nM; in the test on U251 CNS it was 9260 nM. In addition, the TGI in the test with OVCAR-8 ovarian was 31.9 µM; in the test with EKVX NSCLC, 49.9 µM; in the test with OVCAR-4 ovarian, 29.4 µM; with MDA-MB-435, more than 51.5 µM; with M14 melanoma, 29 µM; with HCT-15 colon, 30.5 µM. Moreover, the TGI was 8.3 µM in the test on HL-60(TB) leukemia, 29.8 µM with TK-10 renal, 33.5 µM with SK-MEL-2 melanoma and 23.2 µM in the test on U251 CNS.

On to `CCN(C)c1nc(N(C)CC)c2nc(N(C)CC)nc(N(C)CC)c2n1`, for which the TGI in the test on OVCAR-8 ovarian, with EKVX NSCLC, with OVCAR-4 ovarian, in the test on MDA-MB-435, with M14 melanoma and in the test on HCT-15 colon was more than 100 µM throughout. Further, the TGI in the test with HL-60(TB) leukemia, with TK-10 renal, with SK-MEL-2 melanoma and with U251 CNS was more than 100 µM in each case.

For `COc1ccc(OC)c(/C=C/c2nc(=S)n(-c3ccc(Cl)cc3)[nH]2)c1`, the GI50 in the test on OVCAR-8 ovarian is 28.4 µM; in the test on EKVX NSCLC, 30000 nM; with OVCAR-4 ovarian it was 20600 nM; with MDA-MB-435 it was 2830 nM; in the test with M14 melanoma, 4240 nM; in the test on HCT-15 colon, 4390 nM. The GI50 in the test with HL-60(TB) leukemia was 3570 nM; in the test with TK-10 renal it was 25.8 µM; in the test with SK-MEL-2 melanoma, 4050 nM; with U251 CNS it was 6880 nM. The TGI in the test on OVCAR-8 ovarian, in the test on EKVX NSCLC, in the test with OVCAR-4 ovarian, in the test on MDA-MB-435, with M14 melanoma and in the test on HCT-15 colon was more than 100 µM throughout. For the same compound, the TGI in the test with HL-60(TB) leukemia, in the test on TK-10 renal, with SK-MEL-2 melanoma and with U251 CNS was more than 100 µM in each case.

For the compound `CN(C)CCCC1(c2ccc(F)cc2)OCc2cc(-c3cccc4[nH]ccc34)ccc21` (stereo unspecified), the GI50 in the test on OVCAR-8 ovarian was 1.86 µM; in the test on EKVX NSCLC it was 1780 nM; in the test with OVCAR-4 ovarian, 1970 nM; in the test with MDA-MB-435 it was 1760 nM; in the test on M14 melanoma, 1660 nM; in the test on HCT-15 colon, 1830 nM. In addition, the GI50 is 1810 nM in the test on HL-60(TB) leukemia, 1.7 µM with TK-10 renal, 1790 nM in the test on SK-MEL-2 melanoma and 1520 nM with U251 CNS. For the same compound, the TGI stood at 3.7 µM with OVCAR-8 ovarian; 3.3 µM in the test on EKVX NSCLC; 4.51 µM in the test with OVCAR-4 ovarian; 3.31 µM in the test on MDA-MB-435; 3.33 µM in the test with M14 melanoma; 3.42 µM with HCT-15 colon. The TGI with HL-60(TB) leukemia worked out at 3.59 µM; in the test on TK-10 renal it was 3.2 µM; with SK-MEL-2 melanoma, 3.59 µM; with U251 CNS it was 2.89 µM.

In the case of `N#Cc1nc2c(S(=O)(=O)c3ccc(Cl)cc3)c(N)n(Nc3cccc(Cl)c3)c2nc1C#N`, the TGI in the test with OVCAR-8 ovarian was more than 100 µM; in the test with MDA-MB-435, 0.379 µM and 0.067 µM; in the test with M14 melanoma, 0.304 µM; in the test on HCT-15 colon it was more than 100 µM; in the test with HL-60(TB) leukemia, 0.0871 µM; in the test on SK-MEL-2 melanoma it was 0.387 µM and 0.0857 µM. Also, the GI50 in the test with EKVX NSCLC was 69.3 nM and 26.6 nM; with OVCAR-4 ovarian, 16.6 nM; in the test on MDA-MB-435, 49.7 nM; in the test with M14 melanoma, 67.1 nM; with HCT-15 colon, 98.2 nM; in the test on HL-60(TB) leukemia it was 5.2 nM. The GI50 was 0.0207 µM in the test on TK-10 renal; 105 nM and 12.6 nM in the test with SK-MEL-2 melanoma; 29.4 nM in the test with U251 CNS.

Consider `CCCCCOc1ccc(/C=N/Nc2cc(C)nc3ccc(Cl)cc23)cc1`, for which the GI50 is 1.98 µM with OVCAR-8 ovarian; 1670 nM in the test with EKVX NSCLC; 1720 nM with OVCAR-4 ovarian; 1750 nM in the test with MDA-MB-435; 1760 nM with M14 melanoma; 1430 nM in the test on HCT-15 colon. The GI50 was 1640 nM with HL-60(TB) leukemia, 1.77 µM in the test on TK-10 renal, 1700 nM with SK-MEL-2 melanoma and 1700 nM in the test on U251 CNS. Besides, the TGI in the test with OVCAR-8 ovarian came out at 4.23 µM; in the test on EKVX NSCLC, 3.07 µM; with OVCAR-4 ovarian, 3.22 µM; in the test on MDA-MB-435, 3.21 µM; in the test with M14 melanoma it was 3.23 µM; in the test on HCT-15 colon it was 2.84 µM. For the same compound, the TGI is 3.36 µM with HL-60(TB) leukemia, 3.16 µM in the test on TK-10 renal, 3.17 µM in the test with SK-MEL-2 melanoma and 3.16 µM in the test on U251 CNS.

Take `N#CC1(c2ccc(NC(=O)c3cccnc3NCc3ccncc3)cc2)CCCC1`: the GI50 in the test with OVCAR-8 ovarian is 21.1 µM; with EKVX NSCLC, 11800 nM; in the test with OVCAR-4 ovarian it was 13200 nM; with MDA-MB-435 it was 13400 nM; in the test on M14 melanoma, 16100 nM; with HCT-15 colon, 8120 nM. Besides, the GI50 in the test with HL-60(TB) leukemia is 11900 nM; in the test on TK-10 renal, 23.5 µM; in the test with SK-MEL-2 melanoma, 11900 nM; in the test with U251 CNS it was 12000 nM. Also, the TGI with OVCAR-8 ovarian was more than 83.3 µM; in the test with EKVX NSCLC it was more than 100 µM; with OVCAR-4 ovarian, 98.5 µM; in the test on MDA-MB-435, 37.4 µM; in the test with M14 melanoma, more than 67.1 µM; in the test with HCT-15 colon, 39.3 µM. In addition, the TGI with HL-60(TB) leukemia is 45.9 µM; in the test on TK-10 renal, more than 74.3 µM; with SK-MEL-2 melanoma, 32 µM; with U251 CNS, 25.8 µM.

Turning to `COc1ccc2sc3c(NCCCN)nc4ccccc4c3c(=O)c2c1`, the GI50 was 1750 nM in the test on EKVX NSCLC; 1860 nM in the test with OVCAR-4 ovarian; 1740 nM with MDA-MB-435; 1740 nM in the test on M14 melanoma; 1540 nM in the test with HCT-15 colon; 1890 nM with HL-60(TB) leukemia. For the same compound, the GI50 in the test with SK-MEL-2 melanoma was 2000 nM; in the test on U251 CNS it was 1620 nM. Besides, the TGI in the test with EKVX NSCLC turned out to be 3.39 µM; in the test on OVCAR-4 ovarian, 3.56 µM; in the test on MDA-MB-435, 3.21 µM; in the test with M14 melanoma, 3.18 µM; in the test on HCT-15 colon, 3.05 µM; with HL-60(TB) leukemia, 3.63 µM. Also, the TGI with SK-MEL-2 melanoma was determined as 3.98 µM; with U251 CNS, 3.19 µM.
